Article PMC8234192 (2021)

System: dsDNA (69 bp) (DNA, duplex) GATACGAGCATCGTGTAGGCATCGTAGGTAATACGGATGTGCTAGCTTATTGAATTCAGAGATCTATGC/GCATAGATCTCTGAATTCAATAAGCTAGCACATCCGTATTACCTACGATGCCTACACGATGCTCGTATC
Test: fluorescence molecular brightness titration (FCS set-up)
Settings: 137 mM Na+, 2.7 mM K+, PBS pH 7.4, 0.002% Tween20, 25 °C, 20 nM YOYO-1, mono-intercalation step, 3.5 bp per site

K1: 3.36 ± 0.43 × 10^7 M^-1
Compound: CN1C(=Cc2cc[n+](CCC[N+](C)(C)CCC[N+](C)(C)CCC[n+]3ccc(C=C4Oc5ccccc5N4C)c4ccccc43)c3ccccc23)Oc2ccccc21
